Assay results published in EP1149907A1, “EDG8 receptor, its preparation and use” (Aventis Pharma Deutschland GmbH, priority 2000, dated 2001).

Experiments:
Experiment in all cases: FLIPR assay of intracellular Ca2+ mobilization in transiently transfected CHO cells
human EDG8, SEQ ID NO. 2 = format: cell-based; conditions: for increase in intracellular Ca2+ ([Ca2+]i): CHO cells transiently transfected with EDG8 and G-protein α subunits G16 and Gqi5, lipids applied at 10, 100 and 1000 nM (Fig.3)
Protocol: Fig.2 depicts measurement of the intracellular Ca2+ concentration, mediated by S1P via the different S1P-receptors EDG1, 3, 5, 6 and the putative S1P-receptor EDG8, cotransfected in CHO cells with empty vector DNA as a control or various G-protein α subunits. Intracellular Ca2+ concentrations were recorded as real time measurements using the Fluorescence plate imaging reader (FLIPR, Molecular Devices). […] As already known for a large number of Gq-coupled receptors, coexpression of Gaq augments the EDG1 and 5-mediated Ca2+-release as compared with the Ca2+ signal induced by stimulation of endogeneous Gaq. […] The reason for this discrepancy could be the cellular background, as Yamazaki Y. et al. (2000) reported that the Ca2+ signal can be completely abolished in the presence of pertussis toxin (PTX), indicating the involvement of Gi-type G-proteins. In this case the Ca2+ signal would be elicited by bg, released from activated Gaibg heterotrimers. The Gαi-induced Ca2+ signals are known to be much smaller in intensity as compared with the Ca2+ signals induced by bona-fide Gq-linked receptors (Kostenis et al., 1997a; Kostenis et al., 1997b). It may be that detection of such Ca2+ concentrations is beyond the sensitivity of the FLIPR system. […] To check, whether the EDG8 receptor also reacts to related lysophospholipid mediators, we examined the abilities of lysophosphatidic acid (LPA), dihydrosphingosin 1-phosphate (DHS1P), sphingosylphosphorylcholine (SPC) and lysophosphatidylcholine (LPC) to increase intracellular Ca2+ in CHO cells transiently transfected with the EDG8 receptor and the G-protein α subunits G16 and Gqi5 (Fig.3).
(§1) Fig.2: Mobilization of intracellular Ca^2+ by S1P mediated by the EDG1, 3, 5 and 8 receptor in CHO cells, cotransfected with empty vector DNA as a control or the indicated G-protein α subunits. Agonist-mediated changes of intracellular Ca^2+ were measured with the FLIPR using the Ca^2+-sensitive dye FLUO4. Fluorescence of transfected cells loaded with FLUO4 was recorded before and after addition of S1P, applied in the indicated concentrations. Data are expressed as means of quadruplicate determinations in a single experiment. An additional experiment gave similar results.
Fig.3: Effects of S1P, LPA and related lysophospholipid mediators on EDG8-mediated increase in intracellular Ca^2+ measured with the FLIPR as described in the legend of […]. The different lipids were applied in concentrations of 10, 100 and 1000 nM, respectively. Data are means of quadruplicate determinations of a representative experiment. Two additional experiments gave similar results.
CHO-K1 cells were grown in basal ISCOVE medium supplemented with 10% fetal bovine serum at 37°C in a humidified 5% CO2 incubator. For transfections, 2 x 10^5 cells were seeded into 35-mm dishes. About 24 hr later cells were transiently transfected at 50-80% confluency with the indicated receptor and G-protein constructs (1µg of plasmid DNA each) using the Lipofectamine transfection reagent and the supplied protocol (GIBCO). 18-24 hr after transfection cells were seeded into 96well plates at a density of 50.000 cells per well and cultured for 18-24 additional hr until used in the functional FLIPR assays. The cDNA for Gα16 was cloned from TF1 cells by RT-PCR and ligated into the pCDNA1.1 mammalian expression vector (Invitrogen). Murine wild type Gαq was cloned from cells by RT-PCR and inserted into the BamHI-NsiI-sites of pCDNA1.1. To create the C-terminally modified Gαqi5 subunit, in which the last five aa of wt Gαq were replaced with the correspoding Gαi sequence, a 175-bp Bg/II-NsiI fragment was replaced, in a two piece ligation, with a synthetic DNA fragment, containing the desired codon changes. The correctness of all PCR-derived sequences was verified by sequencing in both directions.
Twenty-four hours after transfection, cells were splitted into 96-well, black-wall microplates (Corning) at a density of 50,000 cells per well. […]

EDG6 = format: cell-based, human; conditions: CHO cells transfected with EDG6, no cotransfected G-protein α subunit
Protocol: (§2) Fig.2 depicts measurement of the intracellular Ca2+ concentration, mediated by S1P via the different S1P-receptors EDG1, 3, 5, 6 and the putative S1P-receptor EDG8, cotransfected in CHO cells with empty vector DNA as a control or various G-protein α subunits. Intracellular Ca2+ concentrations were recorded as real time measurements using the Fluorescence plate imaging reader (FLIPR, Molecular Devices). […] As already known for a large number of Gq-coupled receptors, coexpression of Gaq augments the EDG1 and 5-mediated Ca2+-release as compared with the Ca2+ signal induced by stimulation of endogeneous Gaq. […] The reason for this discrepancy could be the cellular background, as Yamazaki Y. et al. (2000) reported that the Ca2+ signal can be completely abolished in the presence of pertussis toxin (PTX), indicating the involvement of Gi-type G-proteins. In this case the Ca2+ signal would be elicited by bg, released from activated Gaibg heterotrimers. The Gαi-induced Ca2+ signals are known to be much smaller in intensity as compared with the Ca2+ signals induced by bona-fide Gq-linked receptors (Kostenis et al., 1997a; Kostenis et al., 1997b). It may be that detection of such Ca2+ concentrations is beyond the sensitivity of the FLIPR system. […]

EDG5 = format: cell-based, human; conditions: CHO cells transfected with EDG5, no cotransfected G-protein α subunit (Fig.2)
Protocol: as §2
as §1, with “An additional experiment gave similar results.” left out

EDG3 = format: cell-based, human; conditions: CHO cells transfected with EDG3, no cotransfected G-protein α subunit (Fig.2)
Protocol: as §2
as §1, with “An additional experiment gave similar results.” left out

EDG1 = format: cell-based, human; conditions: CHO cells transfected with EDG1, no cotransfected G-protein α subunit (Fig.2)
Protocol: as §2
as §1, with “An additional experiment gave similar results.” left out

## CCCCCCCCCCCCCCC[C@@H](O)[C@@H](N)COP(=O)(O)O [DHS1P, dihydrosphingosin 1-phosphate]
Human EDG8, SEQ ID NO. 2
  increase in intracellular Ca2+ ([Ca2+]i): evoked [Ca2+]i increases in concentrations of 100 and 1000 nM

## CCCCCCCC/C=C\CCCCCCCC(=O)OCC(O)COP(=O)(O)O (centres unmarked) [LPA, lysophosphatidic acid]
Human EDG8, SEQ ID NO. 2
  increase in intracellular Ca2+ ([Ca2+]i): evoked [Ca2+]i increases in concentrations of 100 and 1000 nM

## CCCCCCCCCCCCC/C=C/[C@@H](O)[C@@H](N)COP(=O)(O)O [S1P, sphingosin 1-phosphate]
EDG6
  mobilization of intracellular Ca2+: failed to detect a significant Ca2+ increase above basal levels
Human EDG8, SEQ ID NO. 2; CHO cells cotransfected with EDG8 and Gα16 or Gαqi5 (Fig.2)
  mobilization of intracellular Ca2+: gained the ability to mobilize Ca2+
Human EDG8, SEQ ID NO. 2; CHO cells transfected with EDG8, no cotransfected G-protein α subunit (Fig.2)
  mobilization of intracellular Ca2+: did not release intracellular Ca2+
Human EDG8, SEQ ID NO. 2
  increase in intracellular Ca2+ ([Ca2+]i): most potent activator of EDG8
EDG5
  mobilization of intracellular Ca2+: elicited intracellular Ca2+ signals
EDG3
  mobilization of intracellular Ca2+: elicited intracellular Ca2+ signals
EDG1
  mobilization of intracellular Ca2+: elicited intracellular Ca2+ signals

## CCCCCCCCCCCCC/C=C/[C@@H](O)[C@@H](N)COP(=O)([O-])OCC[N+](C)(C)C [SPC, sphingosylphosphorylcholine]
Human EDG8, SEQ ID NO. 2
  increase in intracellular Ca2+ ([Ca2+]i): failed to generate any significant response in concentrations up to 1 µM

## lysophosphatidylcholine [LPC]
Human EDG8, SEQ ID NO. 2
  increase in intracellular Ca2+ ([Ca2+]i): failed to generate any significant response in concentrations up to 1 µM
